Source: PubChem BioAssay (NCI)
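Test compounds were applied to cells in 96-well plates for 48 hours at 5 doses. At the GI50, growth is halved. Definition used: TGI = concentration required for complete inhibition of growth.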

Assays:
Assay in all cases: DTP human tumour cell line panel, 48 h
A498 renal = test system: A498 renal
BT-549 breast = test system: BT-549 breast
CAKI-1 renal = test system: CAKI-1 renal
DU-145 prostate = test system: DU-145 prostate
HOP-92 NSCLC = test system: HOP-92 NSCLC
IGROV1 ovarian = test system: IGROV1 ovarian
M14 melanoma = test system: M14 melanoma
MALME-3M melanoma = test system: MALME-3M melanoma
MDA-MB-231 breast = test system: MDA-MB-231 breast
NCI/ADR-RES ovarian = test system: NCI/ADR-RES ovarian
PC-3 prostate = test system: PC-3 prostate
SF-295 CNS = test system: SF-295 CNS
SF-539 CNS = test system: SF-539 CNS
SK-OV-3 ovarian = test system: SK-OV-3 ovarian
TK-10 renal = test system: TK-10 renal
UACC-62 melanoma = test system: UACC-62 melanoma
UO-31 renal = test system: UO-31 renal
786-0 renal = test system: 786-0 renal
A549 NSCLC = test system: A549 NSCLC
ACHN renal = test system: ACHN renal
CCRF-CEM leukemia = test system: CCRF-CEM leukemia
COLO 205 colon = test system: COLO 205 colon
EKVX NSCLC = test system: EKVX NSCLC
HCC-2998 colon = test system: HCC-2998 colon
HCT-116 colon = test system: HCT-116 colon
HCT-15 colon = test system: HCT-15 colon
HL-60(TB) leukemia = test system: HL-60(TB) leukemia
HOP-62 NSCLC = test system: HOP-62 NSCLC
HS 578T breast = test system: HS 578T breast
HT29 colon = test system: HT29 colon
K-562 leukemia = test system: K-562 leukemia
KM12 colon = test system: KM12 colon
LOX IMVI melanoma = test system: LOX IMVI melanoma
MCF7 breast = test system: MCF7 breast
MDA-MB-435 = test system: MDA-MB-435
MOLT-4 leukemia = test system: MOLT-4 leukemia
NCI-H226 lung = test system: NCI-H226 lung
NCI-H23 lung = test system: NCI-H23 lung
NCI-H460 lung = test system: NCI-H460 lung
NCI-H522 lung = test system: NCI-H522 lung
OVCAR-3 ovarian = test system: OVCAR-3 ovarian
OVCAR-5 ovarian = test system: OVCAR-5 ovarian
OVCAR-8 ovarian = test system: OVCAR-8 ovarian
RPMI-8226 leukemia = test system: RPMI-8226 leukemia
RXF 393 renal = test system: RXF 393 renal
SF-268 CNS = test system: SF-268 CNS
SK-MEL-2 melanoma = test system: SK-MEL-2 melanoma
SK-MEL-28 melanoma = test system: SK-MEL-28 melanoma
SK-MEL-5 melanoma = test system: SK-MEL-5 melanoma
SN12C renal = test system: SN12C renal
SNB-19 CNS = test system: SNB-19 CNS
SNB-75 CNS = test system: SNB-75 CNS
SW-620 colon = test system: SW-620 colon
T-47D breast = test system: T-47D breast
U251 CNS = test system: U251 CNS
UACC-257 melanoma = test system: UACC-257 melanoma
OVCAR-4 ovarian = test system: OVCAR-4 ovarian

Compound: O=C1c2[nH]cc(CN[C@@H]3CCCN3)c2C(=O)c2c1c(O)c1ccccc1c2O
- GI50 (A498 renal): 544 nM
- TGI (A498 renal): 16300 nM
- GI50 (BT-549 breast): 4670 nM
- TGI (BT-549 breast): 38400 nM
- GI50 (CAKI-1 renal): 927 nM
- TGI (CAKI-1 renal): 2870 nM
- GI50 (DU-145 prostate): 786 nM
- TGI (DU-145 prostate): 2040 nM
- GI50 (HOP-92 NSCLC): 190 nM
- TGI (HOP-92 NSCLC): 1650 nM
- GI50 (IGROV1 ovarian): 262 nM
- TGI (IGROV1 ovarian): 1020 nM
- GI50 (M14 melanoma): 1580 nM
- TGI (M14 melanoma): 3000 nM
- GI50 (MALME-3M melanoma): 1590 nM
- TGI (MALME-3M melanoma): 3070 nM
- GI50 (MDA-MB-231 breast): 527 nM
- TGI (MDA-MB-231 breast): 1840 nM
- GI50 (NCI/ADR-RES ovarian): 3880 nM
- TGI (NCI/ADR-RES ovarian): 30600 nM
- GI50 (PC-3 prostate): 358 nM
- TGI (PC-3 prostate): 1510 nM
- GI50 (SF-295 CNS): 288 nM
- TGI (SF-295 CNS): 1250 nM
- GI50 (SF-539 CNS): 1360 nM
- TGI (SF-539 CNS): 2670 nM
- GI50 (SK-OV-3 ovarian): 583 nM
- TGI (SK-OV-3 ovarian): 1780 nM
- GI50 (TK-10 renal): 1070 nM
- TGI (TK-10 renal): 2290 nM
- GI50 (UACC-62 melanoma): 1290 nM
- TGI (UACC-62 melanoma): 2580 nM
- GI50 (UO-31 renal): 261 nM
- TGI (UO-31 renal): 1520 nM

Compound: NCCCn1c2c(c3ccccc3c1=O)C(=O)c1cc3c(cc1-2)OCO3
- GI50 (786-0 renal): 241 nM
- TGI (786-0 renal): 3100 nM
- GI50 (A549 NSCLC): 27.3 nM
- TGI (A549 NSCLC): 658 nM
- GI50 (ACHN renal): 61 nM
- TGI (ACHN renal): 295 nM
- GI50 (BT-549 breast): < 10 nM
- TGI (BT-549 breast): 1770 nM
- GI50 (CAKI-1 renal): 247 nM
- TGI (CAKI-1 renal): 2270 nM
- GI50 (CCRF-CEM leukemia): 27.1 nM
- TGI (CCRF-CEM leukemia): 187 nM
- GI50 (COLO 205 colon): 121 nM
- TGI (COLO 205 colon): 1980 nM
- GI50 (DU-145 prostate): 137 nM
- TGI (DU-145 prostate): 638 nM
- GI50 (EKVX NSCLC): 1230 nM
- TGI (EKVX NSCLC): 4790 nM
- GI50 (HCC-2998 colon): < 10 nM
- TGI (HCC-2998 colon): 1110 nM
- GI50 (HCT-116 colon): 213 nM
- GI50 (HCT-15 colon): 101 nM
- TGI (HCT-15 colon): 882 nM
- GI50 (HL-60(TB) leukemia): 117 nM
- GI50 (HOP-62 NSCLC): 278 nM
- TGI (HOP-62 NSCLC): 12200 nM
- GI50 (HOP-92 NSCLC): 568 nM
- TGI (HOP-92 NSCLC): 15900 nM
- GI50 (HS 578T breast): 687 nM
- TGI (HS 578T breast): 4310 nM
- GI50 (HT29 colon): 170 nM
- TGI (HT29 colon): 1350 nM
- GI50 (IGROV1 ovarian): 374 nM
- TGI (IGROV1 ovarian): 9200 nM
- GI50 (K-562 leukemia): 200 nM
- TGI (K-562 leukemia): 4230 nM
- GI50 (KM12 colon): 311 nM
- TGI (KM12 colon): 2820 nM
- GI50 (LOX IMVI melanoma): 247 nM
- TGI (LOX IMVI melanoma): 3570 nM
- GI50 (M14 melanoma): 118 nM
- TGI (M14 melanoma): 1510 nM
- GI50 (MALME-3M melanoma): 1480 nM
- TGI (MALME-3M melanoma): 6640 nM
- GI50 (MCF7 breast): 126 nM
- TGI (MCF7 breast): > 52700 nM
- GI50 (MDA-MB-231 breast): 720 nM
- TGI (MDA-MB-231 breast): 4540 nM
- GI50 (MDA-MB-435): 1430 nM
- TGI (MDA-MB-435): 8100 nM
- GI50 (MOLT-4 leukemia): < 10 nM
- GI50 (NCI-H226 lung): 514 nM
- TGI (NCI-H226 lung): 3480 nM
- GI50 (NCI-H23 lung): 324 nM
- TGI (NCI-H23 lung): 1380 nM
- GI50 (NCI-H460 lung): 54.7 nM
- TGI (NCI-H460 lung): 12600 nM
- GI50 (NCI-H522 lung): 474 nM
- TGI (NCI-H522 lung): 4790 nM
- GI50 (NCI/ADR-RES ovarian): 1050 nM
- TGI (NCI/ADR-RES ovarian): 4430 nM
- GI50 (OVCAR-3 ovarian): 766 nM
- TGI (OVCAR-3 ovarian): 3850 nM
- GI50 (OVCAR-5 ovarian): 1540 nM
- TGI (OVCAR-5 ovarian): 4080 nM
- GI50 (OVCAR-8 ovarian): 173 nM
- GI50 (PC-3 prostate): 1220 nM
- TGI (PC-3 prostate): 7410 nM
- GI50 (RPMI-8226 leukemia): < 21.4 nM
- TGI (RPMI-8226 leukemia): 258 nM
- GI50 (RXF 393 renal): 2350 nM
- TGI (RXF 393 renal): > 30300 nM
- GI50 (SF-268 CNS): 1510 nM
- TGI (SF-268 CNS): 15000 nM
- GI50 (SF-295 CNS): 297 nM
- TGI (SF-295 CNS): 1740 nM
- GI50 (SF-539 CNS): 242 nM
- TGI (SF-539 CNS): 1310 nM
- GI50 (SK-MEL-2 melanoma): 3470 nM
- TGI (SK-MEL-2 melanoma): 12800 nM
- GI50 (SK-MEL-28 melanoma): 2230 nM
- TGI (SK-MEL-28 melanoma): 9370 nM
- GI50 (SK-MEL-5 melanoma): 122 nM
- TGI (SK-MEL-5 melanoma): 802 nM
- GI50 (SK-OV-3 ovarian): 1930 nM
- TGI (SK-OV-3 ovarian): 13000 nM
- GI50 (SN12C renal): 276 nM
- TGI (SN12C renal): 1050 nM
- GI50 (SNB-19 CNS): 159 nM
- TGI (SNB-19 CNS): 1620 nM
- TGI (SNB-75 CNS): 1720 nM
- GI50 (SW-620 colon): 111 nM
- TGI (SW-620 colon): 2350 nM
- GI50 (T-47D breast): 407 nM
- TGI (T-47D breast): 3660 nM
- TGI (TK-10 renal): 4170 nM
- GI50 (U251 CNS): 149 nM
- TGI (U251 CNS): 1520 nM
- GI50 (UACC-257 melanoma): 1950 nM
- TGI (UACC-257 melanoma): 12600 nM
- GI50 (UACC-62 melanoma): 63.1 nM
- TGI (UACC-62 melanoma): 620 nM
- GI50 (UO-31 renal): 265 nM
- TGI (UO-31 renal): 1990 nM

Compound: CC(SC(=S)N1CCCC1)C(=O)Nc1nnc(-c2ccc(Cl)cc2)o1 (stereo not drawn)
- TGI (786-0 renal): 32900 nM
- TGI (A498 renal): > 100000 nM
- TGI (A549 NSCLC): > 100000 nM
- TGI (ACHN renal): > 100000 nM
- TGI (BT-549 breast): > 100000 nM
- TGI (COLO 205 colon): > 100000 nM
- TGI (DU-145 prostate): > 100000 nM
- TGI (HCC-2998 colon): > 100000 nM
- TGI (HCT-116 colon): 50000 nM
- TGI (HCT-15 colon): > 100000 nM
- TGI (HL-60(TB) leukemia): 143 nM
- TGI (HOP-62 NSCLC): > 100000 nM
- TGI (HOP-92 NSCLC): > 100000 nM
- TGI (HS 578T breast): > 100000 nM
- TGI (HT29 colon): 51000 nM
- TGI (IGROV1 ovarian): > 100000 nM
- TGI (K-562 leukemia): 78700 nM
- TGI (LOX IMVI melanoma): 54800 nM
- TGI (M14 melanoma): 37100 nM
- TGI (MALME-3M melanoma): 84200 nM
- TGI (MCF7 breast): > 100000 nM
- TGI (MDA-MB-231 breast): > 100000 nM
- TGI (MDA-MB-435): > 100000 nM
- TGI (NCI-H226 lung): > 100000 nM
- TGI (NCI-H23 lung): > 100000 nM
- TGI (NCI-H460 lung): > 100000 nM
- TGI (NCI/ADR-RES ovarian): > 100000 nM
- TGI (OVCAR-3 ovarian): > 100000 nM
- TGI (OVCAR-4 ovarian): > 100000 nM
- TGI (OVCAR-5 ovarian): > 100000 nM
- TGI (OVCAR-8 ovarian): > 100000 nM
- TGI (PC-3 prostate): > 100000 nM
- TGI (RPMI-8226 leukemia): 44800 nM
- TGI (RXF 393 renal): > 100000 nM
- TGI (SF-268 CNS): 96900 nM
- TGI (SF-539 CNS): > 100000 nM
- TGI (SK-MEL-2 melanoma): > 100000 nM
- TGI (SK-MEL-28 melanoma): > 100000 nM
- TGI (SK-MEL-5 melanoma): 82800 nM
- TGI (SK-OV-3 ovarian): > 100000 nM
- TGI (SN12C renal): 59900 nM
- TGI (SNB-19 CNS): > 100000 nM
- TGI (SNB-75 CNS): > 100000 nM
- TGI (SW-620 colon): > 100000 nM
- TGI (T-47D breast): > 100000 nM
- TGI (TK-10 renal): > 100000 nM
- TGI (U251 CNS): > 100000 nM
- TGI (UACC-257 melanoma): > 100000 nM
- TGI (UACC-62 melanoma): > 100000 nM
- TGI (UO-31 renal): 63900 nM
